Experimental data reported in US4818748A, “Renin inhibitors and aminoacid and aminoaldehyde derivatives” (Bayer Aktiengesellschaft, priority 1986, dated 1989).

Assays:
[1] = molecular target: T1, endogenous resin from human plasma (Homo sapiens, UniProt P00797); assay: In vitro test: inhibition of plasma renin activity (angiotensin I formation, radioimmunoassay); assay type: biochemical
T1 construct: endogenous resin from human plasma; from tissue; host or cells: pooled human plasma (EDTA)
T1 sequence (P00797 67-406): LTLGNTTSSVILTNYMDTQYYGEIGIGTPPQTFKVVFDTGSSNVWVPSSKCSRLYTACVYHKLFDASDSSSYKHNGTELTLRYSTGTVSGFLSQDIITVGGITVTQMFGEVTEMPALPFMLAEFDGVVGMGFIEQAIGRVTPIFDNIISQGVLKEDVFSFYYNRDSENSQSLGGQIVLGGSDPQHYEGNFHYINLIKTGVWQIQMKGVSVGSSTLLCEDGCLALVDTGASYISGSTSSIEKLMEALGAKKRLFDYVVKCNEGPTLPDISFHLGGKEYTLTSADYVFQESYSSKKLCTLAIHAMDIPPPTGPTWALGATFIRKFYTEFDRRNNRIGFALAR
Description: The inhibitory strength of the peptides according to the invention against endogenous resin from human plasma is determined in vitro. Pooled human plasma is obtained, with the addition of ethylenediaminetetraacetic acid (EDTA) as an anticoagulant and is stored at -20° C. The plasma renin activity (PRA) is determined as the rate of formation of angiotensin I from endogenous angiotensinogen and renin after incubation at 37° C. The reaction solution contains 150 μl of plasma, 3 μl of 6.6% strength 8-hydroxyquinoline sulphate solution, 3 μl of 10% strength dimercaprol solution and 144 μl of sodium phosphate buffer (0.2M; 0.1% of EDTA; pH 5.6) with or without the substances according to the invention in various concentrations. The angiotensin I formed per unit time is determined by radioimmunoassay (Sorin Biomedica, Italy). The percentage inhibition of the plasma renin activity is calculated by comparison of the amount of angiotensin I formed here with or without the substances according to the invention.

[2] = test system: spontaneously hypertensive rats; assay: In vivo test: systolic blood pressure of conscious spontaneously hypertensive rats, indirect tail-cuff measurement; design: species or system rat; details: conscious SHR; for systolic blood pressure: oral dose of 100 mg/kg
Excerpt: From the current state of the art, it was not to be expected that the compounds according to the invention have a hypotensive action when administered orally. […] [See Table 1].
The blood pressure of the conscious animals is thereby measured by the customary indirect measurement method on the tail, using an inflatable occlusion cuff and an infra-tone pulse recorder [compare H. Breuninger: Methoden zur unblutigen Messung des Blutdrucks an Kleintieren (Methods of bloodless measurement of the blood pressure on small animals), Arzneimittleforschung 6, 222-225 (1956)]. The substance is administered as a suspension in 1% strength Tylose by means of a stomach tube. The systolic blood pressure is measured before and 1, 2, 4 and 6 hours after administration.

[3] = test system: sodium-deficient spontaneously hypertensive rats; assay: Mean arterial pressure in anaesthetized sodium-deficient spontaneously hypertensive rats; assay type: in vivo, rat; details: intragastral administration; sodium-deficient SHR (furosemide in drinking water 14 days), anaesthetized with Inactin

## CC[C@H](C)[C@H](NC(=O)C[C@H](O)[C@H](Cc1ccc([N+](=O)[O-])cc1)NC(=O)[C@H](Cc1c[nH]cn1)NC(=O)[C@H](Cc1ccccc1)NC(=O)OC(C)(C)C)C(=O)OC [Example 12, N-tert.-Butoxycarbonyl-phenylalanyl-L-histidyl-4S-amino-3S-hydroxy-5-(4-nitrophenyl)pentanoyl-L-isoleucine methyl ester]
[1]
  inhibition of renin activity in vitro (in words): inhibit the renin activity in vitro
[2]; 0 hours (before administration)
  systolic blood pressure: 165.0 mm Hg
[2]; 1 hour after administration
  systolic blood pressure: 163.1 mm Hg
[2]; 2 hours after administration
  systolic blood pressure: 161.8 mm Hg
[2]; 4 hours after administration
  systolic blood pressure: 151.8 mm Hg
[2]; 6 hours after administration
  systolic blood pressure: 148.5 mm Hg
[2]; oral administration of 100 mg/kg
  antihypertensive action (in words): antihypertensive action is observed
[3]
  mean arterial pressure (in words): reduces the mean arterial pressure
